In patent US20220289746A1, “PYRROLIDINE DERIVATIVES” (Hoffmann-La Roche Inc., priority 2019, published 2022):

Experiments:
[1] = biological target: T1, human M4 receptor (Homo sapiens, UniProt P08173); assay: cAMP assay for M4 positive allosteric modulators (M4 PAM cAMP assay); type: cell-based; set-up: expressed in transfected cells; host or cells: CHO-K1; conditions: Table 1; CHO-K1 cells expressing human M4; forskolin 7.5 μM + acetylcholine EC20 (0.2 nM)
T1 sequence (P08173 1-479): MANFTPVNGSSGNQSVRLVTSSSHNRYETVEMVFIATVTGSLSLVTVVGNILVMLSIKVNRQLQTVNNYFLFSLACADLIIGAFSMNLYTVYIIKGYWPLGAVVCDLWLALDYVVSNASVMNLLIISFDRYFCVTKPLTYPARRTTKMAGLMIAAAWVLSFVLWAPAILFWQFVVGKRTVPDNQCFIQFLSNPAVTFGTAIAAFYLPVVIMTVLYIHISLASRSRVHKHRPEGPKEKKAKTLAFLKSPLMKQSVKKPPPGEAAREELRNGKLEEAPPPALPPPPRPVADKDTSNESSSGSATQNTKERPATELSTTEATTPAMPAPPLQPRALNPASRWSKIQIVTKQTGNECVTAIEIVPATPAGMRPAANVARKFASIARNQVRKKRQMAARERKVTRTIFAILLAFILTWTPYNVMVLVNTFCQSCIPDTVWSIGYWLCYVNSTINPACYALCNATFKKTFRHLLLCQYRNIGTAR
Protocol: The potency of M4 PAMs was determined using a cell-based cyclic adenosine monophosphate assay. The assay was performed with CHO-Kl cells stably expressing untagged human M4 receptor and cAMP was quantified using the Nano-TRF Detection Assay kit (Roche, Cat. No. 05214386) as described in the kit instructions. The cells were grown in Ham's F-12 Nutrient mix supplemented with 10% FBS and 200 μg/ml geneticin until they reached 80% confluency. The cells were washed with PBS, detached with accutase and resuspended in assay buffer consisting of HBSS and 0.1% BSA. They were then seeded in black 384-well plates (Corning, Cat. No. 3764) at a density of 20,000 cells/20 μl per well until the addition of compounds.
Test compounds were serially diluted 1:2 in 100% DMSO and spotted in 384-well plates at 0.5 μl/well. The compounds were then diluted in water containing IBMX (Sigma, Cat. No. 17018) and a sample (5 μl) was added to the cells for 15 minutes at 37° C./5% CO2. After this incubation the cells were stimulated with a combination of forskolin (7.5 μM) and acetylcholine EC20 (0.2 nM) in assay buffer for 30 minutes at 37° C./5% CO2. The assay was stopped by adding cAMP detection mix (15 μl/well, containing detergents for cell lysis) for one hour at RT.
The test plates were read using a SpectraMax i3x reader (Molecular Devices). The exported raw data was used to calculate the FRET signal based on the P-factor as per cAMP kit instructions. The data was normalized to the activity of acetylcholine plus forskolin, with 2 nM of acetylcholine plus 7.5 μM forskolin defined as 100% activity. Dose response curves were fitted to the percent activity data of the compounds using a sigmoidal dose response model (XLfit, IDBS) and the data were reported as EC50 and percent efficacy.

[2] = biological target: T1, human M4 receptor; assay: Calcium flux assay using fluorescent imaging (M4 PAM FLIPR assay); type: cell-based; set-up: expressed in transfected cells; host or cells: CHO (monoclonal line, clone 2); conditions: Table 1; CHO cells expressing human M4+Gqi5; acetylcholine EC20
Protocol: CHO cells were transfected with expression plasmid encoding the human M4 receptor and a Gqi5 construct to redirect Gi signaling to calcium. Stable cells were cloned by limiting dilution to yield a monoclonal cell line expressing human M4+Gqi5 (clone 2). The stable cells were grown in DMEM containing 10% FBS, 200 ug/ml Geneticin and 800 ug/ml Hygromycin at 37° C. in a 10% CO2 incubator at 95% humidity.
Calcium Flux Assay Using Fluorescent Imaging (“M4 PAM FLIPR” Assay)
On the afternoon before the assay, cells were plated at a density of 50,000 cells/well into black 96 well plates with clear bottoms to yield a confluent monolayer the next day. Hanks balanced salt solution, without phenol red, containing 20 mM HEPES (pH 7.3) and 2.5 mM probenecid (assay buffer) was prepared fresh for each experiment. Compound dilutions were made using a Beckman Biomek 2000 laboratory automation workstation, in assay buffer. The dye-loading buffer consisted of a final concentration of 2 μM Fluo-4-AM (dissolved in DMSO and pluronic acid) and 65 μg/ml amidoblack in assay buffer. The existing culture media was removed from the wells and 100 μl of the dye-loading buffer was added to each well and incubated for approximately 90 min at 37° C. in a 5% CO2 incubator at 95% humidity.
Calcium flux in the dye-loaded cells was measured with the fluorescence reader Hamamatsu FDSS 7000. To test compounds as agonists, compound addition (25 μl) was made 10 s into the fluorescent measurements and fluorescent response was recorded for 3 minutes. The fluorescence data was expressed as percentage of the fluorescence obtained by an EC100 concentration (3 μM) of the endogenous full agonist acetylcholine. Each test compound concentration-response curve was constructed using a four parameter logistic equation in Microsoft Excel XLFit as follows:
Y=Minimum+((Maximum−Minimum)/(1+10^(LogEC50−X)nH)).
The concentration of agonist that produced a half-maximal response is represented by the EC50 value. Maximum and minimum are the maximum and minimum fluorescence signal in % respectively. nH is the Hill slope.
To measure positive allosteric modulator activity 25 μl of an EC20 concentration of the endogenous agonist acetylcholine is added to the cells already pre-incubated with the test compound for 15 minutes.
The M4 PAM dose response is constructed using the agonist dose-response equation above. The concentration of PAM that produced a half-maximal response is represented by the EC50 value and the maximum signal measured is the PAM efficacy expressed in % of the EC100 (3 μM) acetylcholine response. • cAMP Assay for M4 Positive Allosteric Modulators (“M4 PAM cAMP” Assay)

EC50 [1] [nM]	EC50 [2] [nM]	SMILES
507	677	COc1cc(N2CC[C@@H](C(=O)N3Cc4nc(C)c(Cl)c(C)c4C3)C2)ccn1 [Example 22, (3-chloro-2,4-dimethyl-5,7-dihydropyrrolo[3,4-b]pyridin-6-yl)-[(3R)-1-(2-methoxy-4-pyridyl)pyrrolidin-3-yl]methanone]
230	330	Cc1nc2c(c(C)c1Cl)CN(C(=O)[C@@H]1CCN(c3cc(C(F)(F)F)ncn3)C1)C2 [Example 27, (3-chloro-2,4-dimethyl-5,7-dihydropyrrolo[3,4-b]pyridin-6-yl)-[(3R)-1-[6-(trifluoromethyl)pyrimidin-4-yl]pyrrolidin-3-yl]methanone]
120	166	Cc1cc(N2CC[C@@H](C(=O)N3Cc4nc(C)c(Cl)c(C)c4C3)C2)ncn1 [Example 26, (3-chloro-2,4-dimethyl-5,7-dihydropyrrolo[3,4-b]pyridin-6-yl)-[(3R)-1-(6-methylpyrimidin-4-yl)pyrrolidin-3-yl]methanone]
80	181	Cc1nc2c(c(C)c1Cl)CN(C(=O)[C@@H]1CCN(c3ccnc(C(F)F)c3)C1)C2 [Example 20, (3-chloro-2,4-dimethyl-5,7-dihydropyrrolo[3,4-b]pyridin-6-yl)-[(3R)-1-[2-(difluoromethyl)-4-pyridyl]pyrrolidin-3-yl]methanone]
1990	1290	Cc1ccc(N2CC[C@@H](C(=O)N3Cc4nc(C)c(Cl)c(C)c4C3)C2)nn1 [Example 40, (3-chloro-2,4-dimethyl-5,7-dihydropyrrolo[3,4-b]pyridin-6-yl)-[(3R)-1-(6-methylpyridazin-3-yl)pyrrolidin-3-yl]methanone]
1820	906	Cc1nc2c(c(C)c1Cl)CN(C(=O)[C@@H]1CCN(c3cnc(C(F)(F)F)cn3)C1)C2 [Example 47, (3-chloro-2,4-dimethyl-5,7-dihydropyrrolo[3,4-b]pyridin-6-yl)-[(3R)-1-[5-(trifluoromethyl)pyrazin-2-yl]pyrrolidin-3-yl]methanone]
379	442	Cc1nc2c(c(C)c1Cl)CN(C(=O)[C@@H]1CCN(c3cncc(S(C)(=O)=O)c3)C1)C2 [Example 19, (3-chloro-2,4-dimethyl-5,7-dihydropyrrolo[3,4-b]pyridin-6-yl)-[(3R)-1-(5-methylsulfonyl-3-pyridyl)pyrrolidin-3-yl]methanone]
332	274	Cc1nc2c(c(C)c1Cl)CN(C(=O)[C@@H]1CCN(c3ccnnc3)C1)C2 [Example 38, (3-chloro-2,4-dimethyl-5,7-dihydropyrrolo[3,4-b]pyridin-6-yl)-[(3R)-1-pyridazin-4-ylpyrrolidin-3-yl]methanone]
3350	1670	Cc1ccnc(N2CC[C@@H](C(=O)N3Cc4nc(C)c(Cl)c(C)c4C3)C2)n1 [Example 49, (3-chloro-2,4-dimethyl-5,7-dihydropyrrolo[3,4-b]pyridin-6-yl)-[(3R)-1-(4-methylpyrimidin-2-yl)pyrrolidin-3-yl]methanone]
1070	1360	Cc1nc2c(c(C)c1Cl)CN(C(=O)[C@@H]1CCN(c3ccc(C(F)(F)F)nc3)C1)C2 [Example 9, (3-chloro-2,4-dimethyl-5,7-dihydropyrrolo[3,4-b]pyridin-6-yl)-[(3R)-1-[6-(trifluoromethyl)-3-pyridyl]pyrrolidin-3-yl]methanone]
346	306	Cc1nc2c(c(C)c1Cl)CN(C(=O)[C@@H]1CCN(c3cncc(C(F)F)c3)C1)C2 [Example 15, (3-chloro-2,4-dimethyl-5,7-dihydropyrrolo[3,4-b]pyridin-6-yl)-[(3R)-1-[5-(difluoromethyl)-3-pyridyl]pyrrolidin-3-yl]methanone]
1160	527	Cc1cc(N2CC[C@@H](C(=O)N3Cc4nc(C)c(Cl)c(C)c4C3)C2)cnn1 [Example 52, (3-chloro-2,4-dimethyl-5,7-dihydropyrrolo[3,4-b]pyridin-6-yl)-[(3R)-1-(6-methylpyridazin-4-yl)pyrrolidin-3-yl]methanone]
814	611	Cc1cnc(N2CC[C@@H](C(=O)N3Cc4nc(C)c(Cl)c(C)c4C3)C2)cn1 [Example 46, (3-chloro-2,4-dimethyl-5,7-dihydropyrrolo[3,4-b]pyridin-6-yl)-[(3R)-1-(5-methylpyrazin-2-yl)pyrrolidin-3-yl]methanone]
616	490	Cc1cc(N2CC[C@@H](C(=O)N3Cc4nc(C)c(Cl)c(C)c4C3)C2)ccn1 [Example 5, (3-chloro-2,4-dimethyl-5,7-dihydropyrrolo[3,4-b]pyridin-6-yl)-[(3R)-1-(2-methyl-4-pyridyl)pyrrolidin-3-yl]methanone]
65	59	Cc1nc2c(c(C)c1Cl)CN(C(=O)[C@@H]1CCN(c3cncnc3)C1)C2 [Example 30, (3-chloro-2,4-dimethyl-5,7-dihydropyrrolo[3,4-b]pyridin-6-yl)-[(3R)-1-pyrimidin-5-ylpyrrolidin-3-yl]methanone]
3780	931	Cc1nc2c(c(C)c1Cl)CN(C(=O)[C@@H]1CCN(c3ccnc(C4CC4)n3)C1)C2 [Example 6, (3-chloro-2,4-dimethyl-5,7-dihydropyrrolo[3,4-b]pyridin-6-yl)-[(3R)-1-(2-cyclopropylpyrimidin-4-yl)pyrrolidin-3-yl]methanone]
179	74	COCc1nc2c(c(C)c1Cl)CN(C(=O)[C@@H]1CCN(c3cncnc3)C1)C2 [Example 58, [3-chloro-2-(methoxymethyl)-4-methyl-5,7-dihydropyrrolo[3,4-b]pyridin-6-yl]-[(3R)-1-pyrimidin-5-ylpyrrolidin-3-yl]methanone]
791	907	Cc1nc2c(c(C)c1Cl)CN(C(=O)[C@@H]1CCN(c3ccnc(C(F)(F)F)n3)C1)C2 [Example 23, (3-chloro-2,4-dimethyl-5,7-dihydropyrrolo[3,4-b]pyridin-6-yl)-[(3R)-1-[2-(trifluoromethyl)pyrimidin-4-yl]pyrrolidin-3-yl]methanone]
